Data on four compounds can be found in article PMC8550792, “Evolution of kinase polypharmacology across HSP90 drug discovery” (Cell Chemical Biology, 2021).

Holding throughout (assay): biochemical
Common to all, as to type: biochemical

Experiment [1] concerns the target T1, 382 unique human kinases (Homo sapiens, UniProt P00533).
T1 construct: purchased Reaction Biology (HotSpot contract assay)
The following applies: EGFR, 10 uM; for remaining activity at 10 µM: read-out: % Enzyme Activity (relative to DMSO controls).

The target of experiment [2] is T2, 382 unique human kinases (Homo sapiens, UniProt P45984).
T2 construct: purchased Reaction Biology (HotSpot contract assay)
The following applies: kinase JNK2, compound 10 uM; for remaining activity at 10 µM: read-out: % Enzyme Activity (relative to DMSO controls).

For experiment [3], the target named is T3, 382 unique human kinases (Homo sapiens, UniProt P53667).
T3 construct: purchased Reaction Biology (HotSpot contract assay)
The following applies: LIMK1, 10 uM; for remaining activity at 10 µM: read-out: % Enzyme Activity (relative to DMSO controls).

Experiment [4] deals with T4, 382 unique human kinases (Homo sapiens, UniProt Q6IQ55).
T4 construct: purchased Reaction Biology (HotSpot contract assay)
The following applies: TTBK2, compound at 10 uM, duplicate values; for remaining activity at 10 µM: read-out: % Enzyme Activity (relative to DMSO controls).

The target in experiment [5] is T5, 382 unique human kinases (Homo sapiens, UniProt Q9NRM7).
T5 construct: purchased Reaction Biology (HotSpot contract assay)
T5 sequence (Q9NRM7 1-1088): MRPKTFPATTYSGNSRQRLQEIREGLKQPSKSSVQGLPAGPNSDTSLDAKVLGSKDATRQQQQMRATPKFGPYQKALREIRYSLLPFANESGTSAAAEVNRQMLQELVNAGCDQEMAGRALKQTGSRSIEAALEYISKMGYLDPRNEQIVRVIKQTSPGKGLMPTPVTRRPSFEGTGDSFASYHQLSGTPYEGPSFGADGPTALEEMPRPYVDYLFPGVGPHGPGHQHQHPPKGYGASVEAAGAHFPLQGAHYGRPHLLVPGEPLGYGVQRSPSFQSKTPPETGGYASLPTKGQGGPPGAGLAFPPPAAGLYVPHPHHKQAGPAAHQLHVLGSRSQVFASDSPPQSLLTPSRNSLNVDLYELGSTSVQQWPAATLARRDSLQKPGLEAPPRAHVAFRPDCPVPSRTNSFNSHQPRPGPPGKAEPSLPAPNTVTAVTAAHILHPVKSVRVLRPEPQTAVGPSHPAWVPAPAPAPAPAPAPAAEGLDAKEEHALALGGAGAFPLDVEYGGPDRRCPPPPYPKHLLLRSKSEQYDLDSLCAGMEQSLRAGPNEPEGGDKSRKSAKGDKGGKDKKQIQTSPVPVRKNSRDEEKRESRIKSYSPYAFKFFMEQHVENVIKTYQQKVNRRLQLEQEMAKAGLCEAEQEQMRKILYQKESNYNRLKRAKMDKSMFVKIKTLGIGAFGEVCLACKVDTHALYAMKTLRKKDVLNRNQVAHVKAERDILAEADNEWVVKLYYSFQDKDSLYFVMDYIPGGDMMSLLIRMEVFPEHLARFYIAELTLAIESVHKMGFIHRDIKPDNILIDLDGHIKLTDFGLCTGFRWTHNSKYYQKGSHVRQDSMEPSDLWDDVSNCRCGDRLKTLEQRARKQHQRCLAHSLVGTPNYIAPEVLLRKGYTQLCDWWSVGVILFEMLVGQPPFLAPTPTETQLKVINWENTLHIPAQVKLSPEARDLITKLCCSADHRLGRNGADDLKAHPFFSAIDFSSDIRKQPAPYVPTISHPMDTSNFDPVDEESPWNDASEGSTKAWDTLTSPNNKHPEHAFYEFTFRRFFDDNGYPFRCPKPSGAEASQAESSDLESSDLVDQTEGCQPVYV
Conditions: LATS2, 10 uM; for remaining activity at 10 µM: read-out: % Enzyme Activity (relative to DMSO controls).

For experiment [6], the target named is T6, 382 unique human kinases (Homo sapiens, UniProt P07949, S891A).
T6 construct: purchased Reaction Biology (HotSpot contract assay)
The following applies: RET (S891A), [ATP] 5 µM, compound 10 uM; for remaining activity at 10 µM: read-out: % Enzyme Activity (relative to DMSO controls).

Experiment [7] addresses T7, 382 unique human kinases (Homo sapiens, UniProt P11309).
T7 construct: purchased Reaction Biology (HotSpot contract assay)
The following applies: PIM1, [ATP] 100 µM, compound 10 uM; for remaining activity at 10 µM: read-out: % Enzyme Activity (relative to DMSO controls).

Experiment [8] concerns the target T8, 382 unique human kinases (Homo sapiens, UniProt P27448).
T8 construct: purchased Reaction Biology (HotSpot contract assay)
The following applies: MARK3, 10 uM; for remaining activity at 10 µM: read-out: % Enzyme Activity (relative to DMSO controls).

The target of experiment [9] is T9, 382 unique human kinases (Homo sapiens, UniProt Q04912).
T9 construct: purchased Reaction Biology (HotSpot contract assay)
The following applies: RON/MST1R, 10 uM; for remaining activity at 10 µM: read-out: % Enzyme Activity (relative to DMSO controls).

The target in experiment [10] is T10, 382 unique human kinases (Homo sapiens, UniProt Q09013).
T10 construct: purchased Reaction Biology (HotSpot contract assay)
T10 sequence (Q09013 1-629): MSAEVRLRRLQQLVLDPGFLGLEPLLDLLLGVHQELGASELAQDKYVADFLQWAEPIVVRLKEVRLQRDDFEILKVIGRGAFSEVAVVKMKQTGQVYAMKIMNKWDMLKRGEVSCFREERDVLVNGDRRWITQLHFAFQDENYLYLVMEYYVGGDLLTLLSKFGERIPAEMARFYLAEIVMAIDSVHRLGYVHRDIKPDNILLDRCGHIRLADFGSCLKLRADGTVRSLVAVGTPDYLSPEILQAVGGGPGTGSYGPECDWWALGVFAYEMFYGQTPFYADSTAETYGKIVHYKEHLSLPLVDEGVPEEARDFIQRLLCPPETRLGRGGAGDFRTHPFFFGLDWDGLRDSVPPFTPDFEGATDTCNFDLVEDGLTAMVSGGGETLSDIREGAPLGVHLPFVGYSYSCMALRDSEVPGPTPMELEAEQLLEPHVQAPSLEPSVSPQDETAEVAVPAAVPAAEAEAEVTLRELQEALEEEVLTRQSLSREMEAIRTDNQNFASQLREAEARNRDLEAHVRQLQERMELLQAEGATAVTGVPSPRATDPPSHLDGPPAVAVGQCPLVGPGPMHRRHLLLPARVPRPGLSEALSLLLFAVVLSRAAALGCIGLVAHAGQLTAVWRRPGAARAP
Conditions: DMPK, 10 uM; for remaining activity at 10 µM: read-out: % Enzyme Activity (relative to DMSO controls).

T7 sequence (P11309 whole entry): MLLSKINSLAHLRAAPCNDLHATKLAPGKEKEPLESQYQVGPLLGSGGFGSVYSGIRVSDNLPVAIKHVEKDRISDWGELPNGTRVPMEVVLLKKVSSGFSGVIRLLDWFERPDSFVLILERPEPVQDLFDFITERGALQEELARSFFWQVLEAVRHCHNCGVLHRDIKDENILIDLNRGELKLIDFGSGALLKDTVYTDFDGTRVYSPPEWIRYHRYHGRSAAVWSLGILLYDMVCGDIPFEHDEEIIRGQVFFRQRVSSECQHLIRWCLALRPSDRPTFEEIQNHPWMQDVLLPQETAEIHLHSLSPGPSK
T8 sequence (P27448 whole entry): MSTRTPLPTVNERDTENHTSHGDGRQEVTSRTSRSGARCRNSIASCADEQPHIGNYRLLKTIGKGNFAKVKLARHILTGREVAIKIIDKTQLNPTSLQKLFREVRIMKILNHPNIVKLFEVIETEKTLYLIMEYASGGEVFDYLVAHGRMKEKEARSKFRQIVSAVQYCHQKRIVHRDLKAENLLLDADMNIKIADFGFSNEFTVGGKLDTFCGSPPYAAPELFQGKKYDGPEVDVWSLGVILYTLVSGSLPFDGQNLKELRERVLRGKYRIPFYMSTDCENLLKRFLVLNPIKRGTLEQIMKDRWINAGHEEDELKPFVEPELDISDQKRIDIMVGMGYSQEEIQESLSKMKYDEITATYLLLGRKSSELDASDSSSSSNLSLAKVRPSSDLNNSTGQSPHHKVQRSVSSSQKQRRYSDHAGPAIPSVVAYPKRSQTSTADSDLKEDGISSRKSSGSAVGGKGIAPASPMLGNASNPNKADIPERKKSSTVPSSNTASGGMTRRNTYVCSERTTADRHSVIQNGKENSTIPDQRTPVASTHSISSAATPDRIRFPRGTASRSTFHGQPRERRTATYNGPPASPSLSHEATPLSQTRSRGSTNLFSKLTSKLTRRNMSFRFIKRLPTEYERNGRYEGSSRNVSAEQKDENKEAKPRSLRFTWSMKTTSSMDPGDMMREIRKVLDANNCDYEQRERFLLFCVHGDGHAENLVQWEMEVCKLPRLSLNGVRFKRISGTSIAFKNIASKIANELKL
T3 sequence (P53667 whole entry): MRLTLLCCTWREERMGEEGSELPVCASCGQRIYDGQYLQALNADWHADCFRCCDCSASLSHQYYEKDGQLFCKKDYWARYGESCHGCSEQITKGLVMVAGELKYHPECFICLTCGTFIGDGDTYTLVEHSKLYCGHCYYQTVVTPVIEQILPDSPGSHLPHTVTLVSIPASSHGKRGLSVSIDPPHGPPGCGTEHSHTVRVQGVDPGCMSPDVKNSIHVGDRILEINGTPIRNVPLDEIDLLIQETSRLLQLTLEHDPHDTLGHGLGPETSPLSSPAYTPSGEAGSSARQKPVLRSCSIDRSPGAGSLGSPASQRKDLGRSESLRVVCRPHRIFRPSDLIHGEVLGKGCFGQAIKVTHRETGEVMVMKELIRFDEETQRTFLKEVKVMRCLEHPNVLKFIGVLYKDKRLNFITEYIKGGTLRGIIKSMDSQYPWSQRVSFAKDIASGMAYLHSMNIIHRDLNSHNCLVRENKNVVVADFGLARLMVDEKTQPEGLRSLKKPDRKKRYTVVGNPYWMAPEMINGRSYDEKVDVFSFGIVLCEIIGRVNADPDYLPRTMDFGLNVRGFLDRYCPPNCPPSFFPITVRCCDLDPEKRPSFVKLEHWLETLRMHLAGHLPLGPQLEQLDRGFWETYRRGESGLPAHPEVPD
T1 sequence (P00533 25-1210): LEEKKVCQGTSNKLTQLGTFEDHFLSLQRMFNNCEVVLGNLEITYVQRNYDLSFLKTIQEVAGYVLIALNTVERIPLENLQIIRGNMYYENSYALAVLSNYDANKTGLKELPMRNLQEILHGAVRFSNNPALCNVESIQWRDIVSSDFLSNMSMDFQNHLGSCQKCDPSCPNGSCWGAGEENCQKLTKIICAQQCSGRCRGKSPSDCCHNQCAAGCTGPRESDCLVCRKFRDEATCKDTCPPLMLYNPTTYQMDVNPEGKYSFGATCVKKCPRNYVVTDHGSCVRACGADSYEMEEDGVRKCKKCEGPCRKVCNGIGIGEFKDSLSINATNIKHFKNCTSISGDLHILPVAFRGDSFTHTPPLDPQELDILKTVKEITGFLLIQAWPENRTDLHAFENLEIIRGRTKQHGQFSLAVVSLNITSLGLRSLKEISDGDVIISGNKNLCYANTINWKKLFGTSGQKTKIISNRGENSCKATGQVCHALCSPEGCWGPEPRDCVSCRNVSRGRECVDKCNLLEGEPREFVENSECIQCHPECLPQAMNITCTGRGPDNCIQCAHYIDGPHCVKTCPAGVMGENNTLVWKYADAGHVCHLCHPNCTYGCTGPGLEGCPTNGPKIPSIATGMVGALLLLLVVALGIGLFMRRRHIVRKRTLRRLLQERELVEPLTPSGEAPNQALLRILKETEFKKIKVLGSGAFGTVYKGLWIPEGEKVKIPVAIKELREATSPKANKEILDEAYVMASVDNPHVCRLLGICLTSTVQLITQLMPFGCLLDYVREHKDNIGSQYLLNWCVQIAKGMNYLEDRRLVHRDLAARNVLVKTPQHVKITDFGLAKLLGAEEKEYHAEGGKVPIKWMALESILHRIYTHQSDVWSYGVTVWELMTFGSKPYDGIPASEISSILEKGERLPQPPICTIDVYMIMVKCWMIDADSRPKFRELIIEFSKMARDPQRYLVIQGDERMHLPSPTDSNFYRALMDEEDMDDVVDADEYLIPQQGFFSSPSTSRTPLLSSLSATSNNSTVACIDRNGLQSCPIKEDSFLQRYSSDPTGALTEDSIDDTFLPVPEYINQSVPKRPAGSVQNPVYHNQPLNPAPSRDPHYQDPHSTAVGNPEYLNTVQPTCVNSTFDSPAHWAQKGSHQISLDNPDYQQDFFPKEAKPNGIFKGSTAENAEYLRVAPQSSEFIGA
T9 sequence (Q04912 25-1400): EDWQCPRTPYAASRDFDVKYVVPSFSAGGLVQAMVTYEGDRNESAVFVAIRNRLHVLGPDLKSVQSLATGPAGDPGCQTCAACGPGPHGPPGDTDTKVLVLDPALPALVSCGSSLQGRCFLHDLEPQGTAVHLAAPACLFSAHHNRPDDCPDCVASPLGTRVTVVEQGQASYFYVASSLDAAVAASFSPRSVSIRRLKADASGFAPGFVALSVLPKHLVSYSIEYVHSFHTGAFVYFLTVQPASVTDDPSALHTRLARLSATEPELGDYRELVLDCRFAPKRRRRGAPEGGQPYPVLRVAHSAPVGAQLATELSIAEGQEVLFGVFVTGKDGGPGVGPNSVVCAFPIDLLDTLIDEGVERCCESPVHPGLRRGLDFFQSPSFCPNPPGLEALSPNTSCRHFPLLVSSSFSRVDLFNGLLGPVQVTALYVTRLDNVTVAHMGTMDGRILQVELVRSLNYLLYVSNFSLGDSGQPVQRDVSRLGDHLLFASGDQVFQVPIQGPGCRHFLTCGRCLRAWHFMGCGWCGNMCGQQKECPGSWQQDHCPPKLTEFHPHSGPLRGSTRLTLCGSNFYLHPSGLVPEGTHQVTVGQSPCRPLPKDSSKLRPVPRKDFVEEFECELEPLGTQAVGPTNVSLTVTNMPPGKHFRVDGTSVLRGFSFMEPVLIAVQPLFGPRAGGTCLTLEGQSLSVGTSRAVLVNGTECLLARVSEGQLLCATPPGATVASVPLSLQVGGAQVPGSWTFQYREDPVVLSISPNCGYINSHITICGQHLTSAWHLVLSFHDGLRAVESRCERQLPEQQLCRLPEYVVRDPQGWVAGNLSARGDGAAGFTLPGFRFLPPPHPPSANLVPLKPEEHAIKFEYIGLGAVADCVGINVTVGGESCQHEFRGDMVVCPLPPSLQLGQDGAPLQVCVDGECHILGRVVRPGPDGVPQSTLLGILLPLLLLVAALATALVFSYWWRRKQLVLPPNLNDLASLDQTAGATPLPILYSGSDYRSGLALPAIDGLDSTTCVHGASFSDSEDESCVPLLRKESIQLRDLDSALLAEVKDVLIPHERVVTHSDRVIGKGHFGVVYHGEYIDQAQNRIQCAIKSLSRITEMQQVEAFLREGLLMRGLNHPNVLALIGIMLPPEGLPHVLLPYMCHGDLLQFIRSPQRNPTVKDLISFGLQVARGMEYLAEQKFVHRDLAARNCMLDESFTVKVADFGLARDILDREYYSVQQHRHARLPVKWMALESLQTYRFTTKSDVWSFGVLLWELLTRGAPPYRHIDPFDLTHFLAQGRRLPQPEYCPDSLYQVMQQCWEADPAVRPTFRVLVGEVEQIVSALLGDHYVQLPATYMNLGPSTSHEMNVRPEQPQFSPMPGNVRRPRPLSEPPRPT
T2 sequence (P45984 whole entry): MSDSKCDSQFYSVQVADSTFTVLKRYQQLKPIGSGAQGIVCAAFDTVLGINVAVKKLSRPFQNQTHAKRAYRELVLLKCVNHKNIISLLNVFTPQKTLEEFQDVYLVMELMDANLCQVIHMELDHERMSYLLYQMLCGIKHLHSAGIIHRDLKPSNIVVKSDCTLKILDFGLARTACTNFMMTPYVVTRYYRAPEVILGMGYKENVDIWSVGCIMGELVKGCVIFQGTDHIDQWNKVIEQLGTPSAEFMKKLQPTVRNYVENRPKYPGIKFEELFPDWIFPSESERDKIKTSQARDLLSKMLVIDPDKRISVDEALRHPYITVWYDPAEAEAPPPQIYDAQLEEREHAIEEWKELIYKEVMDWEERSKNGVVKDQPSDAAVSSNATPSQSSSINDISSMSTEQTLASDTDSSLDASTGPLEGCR

Consider `CC(C)c1cc(-c2n[nH]c(=O)n2-c2ccc3c(ccn3C)c2)c(O)cc1O` [Ganetespib (STA9090)], for which the remaining activity at 10 µM in experiment [1] was determined as 76%; in experiment [2], 90%; in experiment [3], 67.6%; in [4], 124%; in experiment [5], 74.3%.

Consider `CC(C)c1cc(-c2n[nH]c(=O)n2-c2ccc3c(ccn3C)c2)c(O)cc1O` [Ganetespib], for which the remaining activity at 10 µM in experiment [6] stood at 20.2%; in experiment [7], 15.9%; in experiment [8], 100%; in experiment [9], 106%; in experiment [10] it was 110%.

Consider `CCNC(=O)c1noc(-c2cc(C(C)C)c(O)cc2O)c1-c1ccc(CN2CCOCC2)cc1` [Luminespib (AUY-922)], for which the “% Enzyme Activity (relative to DMSO controls)” value in experiment [1] is 93.47%; in [2] it was 99.14%; in experiment [3], 101.40%; in [4], 121.05%; in [5], 91.88%. The remaining activity at 10 µM in experiment [1] was 95.1%; in experiment [2], 99.7%; in [3], 102%; in experiment [4], 122%; in [5] it was 94.8%.

On to `CCNC(=O)c1noc(-c2cc(C(C)C)c(O)cc2O)c1-c1ccc(CN2CCOCC2)cc1` [Luminespib], for which the “% Enzyme Activity (relative to DMSO controls)” value in experiment [6] is reported as 88.26%; in experiment [7] it was 94.76%; in experiment [8], 108.05%; in experiment [9], 94.46%; in experiment [10] it was 99.26%. In addition, the remaining activity at 10 µM was determined as 89.3% in experiment [6]; 97.2% in experiment [7]; 111% in [8]; 100% in [9]; 100% in [10].
